Reference: patent US9120805B2, “Substituted pyrrolo[1,2-A]pyrazin-1-ones and pyrazolo[1,5-A]pyrazin-4-ones as inhibitors of tankyrase and poly(ADP-ribose)polymerase activity” (Merck Patent GmbH, priority 2012, dated 2015)

What was measured:
Format in all cases: biochemical
[1] = biological target: T1, GST-tagged Tnks-1 (1023-1327 aa) (Homo sapiens, UniProt O95271); assay: TNKS1 activity ELISA (autoparsylation assay)
T1 construct: GST-tagged Tnks-1 (1023-1327 aa, prepared in-house); made in house
Procedure: (§1) Description of the TNKS1 and TNKS2 ELISA Assay
(§2) Biochemical Activity Testing of TNKS 1 and 2: Activity ELISA (Autoparsylation Assay)
(§3) For analysis of autoparsylation activity of TNKS 1 and 2 an activity ELISA is performed: In the first step GST tagged TNKS is captured on a Glutathione coated plate. Then the activity assay with biotinylated NAD is performed in the absence/presence of the compounds. During the enzymatic reaction GST tagged TNKS transfers biotinylated ADP-ribose to itself from biotinylated NAD as co-substrate. For the detection streptavidin-HRP conjugate is added that binds to the biotinylated TNKS and is thereby captured to the plates. The amount of biotinylated resp. autoparsylated TNKS is detected with a luminescence substrate for HRP. The level of the luminescence signal correlates directly with the amount of autoparsylated TNKS and therefore with activity of TNKS.
(§4) The activity ELISA is performed in 384 well Glutathione coated microtiter plates (Express capture Glutathione coated plate, Biocat, Heidelberg, Germany). The plates are pre-equilibrated with PBS. Then the plates are incubated with 50 μl 20 ng/well GST-tagged Tnks-1 (1023-1327 aa, prepared in-house), respectively GST-tagged Tnks-2 (873-1166 aa, prepared in-house) in assay buffer (50 mM HEPES, 4 mM Mg-chloride, 0.05% Pluronic F-68, 2 mM DTT, pH 7.7) overnight at 4° C. The plates are washed 3 times with PBS-Tween-20. The wells are blocked by incubation at room temperature for 20 minutes with 50 μl blocking buffer (PBS, 0.05% Tween-20, 0.5% BSA). Afterwards the plates are washed 3 times with PBS-Tween-20. The enzymatic reaction is performed in 50 μl reaction solution (50 mM HEPES, 4 mM Mg-chloride, 0.05% Pluronic F-68, 1.4 mM DTT, 0.5% DMSO, pH 7.7) with 10 μM bio-NAD (Biolog, Life science Inst., Bremen, Germany) as co-substrate in the absence or presence of the test compound (10 dilution concentrations) for 1 hour at 30° C. The reaction is stopped by 3 times washing with PBS-Tween-20. For the detection 50 μl of 20 ng/μl Streptavidin, HRP conjugate (MoBiTec, Göttingen, Germany) in PBS/0.05% Tween-20/0.01% BSA are added and the plates are incubated for 30 minutes at room temperature. After three times washing with PBS-Tween-20 50 μl of SuperSignal ELISA Femto Maximum sensitivity substrate solution (ThermoFisherScientific (Pierce), Bonn, Germany) are added. Following a 1 minute incubation at room temperature luminescence signals are measured with an Envision multimode reader (Perkin Elmer LAS Germany GmbH) at 700 nm. The full value used is the inhibitor-free reaction. The pharmacological zero value used is XAV-939 (Tocris) in a final concentration of 5 μM. The inhibitory values (1050) are determined using either the program Symyx Assay Explorer® or Condosseo® from GeneData.

[2] = biological target: T2, GST-tagged Tankyrase-1 (1023-1327 aa) (Homo sapiens, UniProt O95271); assay: Tankyrase 1 autoparsylation assay (HTRF enzyme assay)
T2 construct: GST-tagged Tankyrase-1 (1023-1327 aa)
Outline: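 ~250 nM GST-tagged enzyme with 5 μM biotin-NAD in HEPES/Mg/DTT buffer pH 7.7, 10 compound concentrations, 90 min at 30 °C; EDTA stop. Eu-anti-GST/streptavidin-Xlent HTRF read (665/615 ratio) after 1 h RT. IC50 relative to inhibitor-free reaction and 5 μM XAV-939 as zero.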

[3] = biological target: T3, GST-tagged Tnks-2 (873-1166 aa) (Homo sapiens, UniProt Q9H2K2); assay: TNKS2 activity ELISA (autoparsylation assay)
T3 construct: GST-tagged Tnks-2 (873-1166 aa, prepared in-house); made in house
Procedure: as §1, §2, §3, §4

T3 sequence (Q9H2K2 873-1166): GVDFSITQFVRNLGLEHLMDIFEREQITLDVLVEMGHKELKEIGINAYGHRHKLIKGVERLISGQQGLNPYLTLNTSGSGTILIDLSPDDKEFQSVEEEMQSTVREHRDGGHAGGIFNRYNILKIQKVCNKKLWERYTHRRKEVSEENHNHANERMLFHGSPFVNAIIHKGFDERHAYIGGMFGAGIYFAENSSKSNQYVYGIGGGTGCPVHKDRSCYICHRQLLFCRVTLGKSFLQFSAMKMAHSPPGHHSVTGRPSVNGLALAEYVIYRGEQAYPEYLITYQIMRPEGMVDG
T2 sequence (O95271 1023-1327): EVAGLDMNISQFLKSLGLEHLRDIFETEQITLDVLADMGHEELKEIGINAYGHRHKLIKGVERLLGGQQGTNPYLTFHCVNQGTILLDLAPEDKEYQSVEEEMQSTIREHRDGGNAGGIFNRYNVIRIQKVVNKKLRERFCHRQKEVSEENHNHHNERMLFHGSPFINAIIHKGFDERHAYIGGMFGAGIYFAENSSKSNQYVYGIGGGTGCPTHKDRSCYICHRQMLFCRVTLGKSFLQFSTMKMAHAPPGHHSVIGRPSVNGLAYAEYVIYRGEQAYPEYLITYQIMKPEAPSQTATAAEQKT
T1 sequence (O95271 1023-1327): as above

Row | Structure (SMILES) | IC50 [1] [nM] | IC50 [2] [nM] | IC50 [3] [nM]
1 | CC(C)(OCCO)c1ccc(-c2cn3cc(F)cc3c(=O)[nH]2)cc1 [Compound A70, 7-fluoro-3-{4-[1-(2-hydroxy-ethoxy)-1-methyl-ethyl]-phenyl}-2H-pyrrolo[1,2-a]pyrazin-1-one] | < 300 | < 300 | < 300
2 | Cc1cc2c(=O)[nH]c(-c3ccc(C(C)(C)O)cc3)cn2n1 [Compound A46, 6-[4-(1-hydroxy-1-methyl-ethyl)phenyl]-2-methyl-5H-pyrazolo[1,5-a]pyrazin-4-one] | < 300 | < 300 | < 300
3 | CC(C)(C)c1ccc(-c2cn3cc(F)cc3c(=O)[nH]2)cc1 [Compound A35, 3-(4-tert-butyl-phenyl)-7-fluoro-2H-pyrrolo[1,2-a]pyrazin-1-one] | < 300 | < 300 | < 300
4 | CC(C)(C)c1ccc(-c2cn3cccc3c(=O)[nH]2)cc1 [Compound A11, 3-(4-tert-butyl-phenyl)-2H-pyrrolo[1,2-a]pyrazin-1-one] | < 300 | < 300 | < 300
5 | COCCOC(C)(C)c1ccc(-c2cn3cc(F)cc3c(=O)[nH]2)cc1 [Compound A71, 7-fluoro-3-{4-[1-(2-methoxy-ethoxy)-1-methyl-ethyl]-phenyl}-2H-pyrrolo[1,2-a]pyrazin-1-one] | < 300 | < 300 | < 300
6 | CC(C)(O)c1ccc(-c2cn3cc(Cl)cc3c(=O)[nH]2)cc1 [Compound A60, 7-chloro-3-[4-(1-hydroxy-1-methyl-ethyl)-phenyl]-2H-pyrrolo[1,2-a]pyrazin-1-one] | < 300 | < 300 | < 300
7 | Cn1cc(-c2ccc(-c3cn4cccc4c(=O)[nH]3)cc2)cn1 [Compound A25, 3-[4-(1-methyl-1H-pyrazol-4-yl)-phenyl]-2H-pyrrolo[1,2-a]pyrazin-1-one] | < 300 | < 300 | < 300
8 | CC(C)(N)c1ccc(-c2cn3cc(F)cc3c(=O)[nH]2)cc1 [Compound A72, 3-[4-(1-amino-1-methyl-ethyl)-phenyl]-7-fluoro-2H-pyrrolo[1,2-a]pyrazin-1-one] | < 300 | < 300 | < 300
9 | CC(C)(F)c1ccc(-c2cn3cc(F)cc3c(=O)[nH]2)cc1 [Compound A63, 7-fluoro-3-[4-(1-fluoro-1-methyl-ethyl)-phenyl]-2H-pyrrolo[1,2-a]pyrazin-1-one] | < 300 | < 300 | < 300
10 | Cc1ccc(-c2cn3cccc3c(=O)[nH]2)cc1 [Compound A12, 3-p-tolyl-2H-pyrrolo[1,2-a]pyrazin-1-one] | < 300 | < 300 | < 300
11 | CC(C)(O)c1ccc(-c2cn3cc(F)cc3c(=O)[nH]2)cc1 [Compound A59, 7-fluoro-3-[4-(1-hydroxy-1-methyl-ethyl)-phenyl]-2H-pyrrolo[1,2-a]pyrazin-1-one] | < 300 | < 300 | < 300
12 | CN1CCC(c2ccc(-c3cn4cccc4c(=O)[nH]3)cc2)CC1 [Compound A79, 3-[4-(1-methyl-piperidin-4-yl)-phenyl]-2H-pyrrolo[1,2-a]pyrazin-1-one] | < 300 | < 300 | < 300
13 | O=c1[nH]c(-c2ccc(C3(O)CCC3)cc2)cn2cccc12 [Compound A111] | < 300 | < 300 | < 300
14 | CC(C)(O)c1ccc(-c2cn3cccc3c(=O)[nH]2)cc1 [Compound A29, 3-[4-(1-hydroxy-1-methyl-ethyl)-phenyl]-2H-pyrrolo[1,2-a]pyrazin-1-one] | < 300 | < 300 | < 300
15 | Cc1cc2c(=O)[nH]c(-c3ccc(C(C)(C)O)cc3)cn2c1 [Compound A56, 3-[4-(1-hydroxy-1-methyl-ethyl)-phenyl]-7-methyl-2H-pyrrolo[1,2-a]pyrazin-1-one] | < 300 | < 300 | < 300
16 | CCC(O)(CC)c1ccc(-c2cn3cc(F)cc3c(=O)[nH]2)cc1 [Compound A61, 3-[4-(1-ethyl-1-hydroxy-propyl)-phenyl]-7-fluoro-2H-pyrrolo[1,2-a]pyrazin-1-one] | < 300 | < 300 | < 300
17 | CC1(c2ccc(-c3cn4cc(F)cc4c(=O)[nH]3)cc2)CCCO1 (stereo not drawn) [Compound A73, 7-fluoro-3-[4-(2-methyl-tetrahydro-furan-2-yl)-phenyl]-2H-pyrrolo[1,2-a]pyrazin-1-one] | < 300 | < 300 | < 300
18 | CN1CCC(c2ccc(-c3cn4cccc4c(=O)[nH]3)cc2)C1 (stereo not drawn) [Compound A80, 3-[4-(1-methyl-pyrrolidin-3-yl)-phenyl]-2H-pyrrolo[1,2-a]pyrazin-1-one] | < 300 | 300 to 3000 | < 300
19 | O=c1[nH]c(-c2ccc(C3CCNC3)cc2)cn2cccc12 (stereo not drawn) [Compound A76, 3-(4-Pyrrolidin-3-yl-phenyl)-2H-pyrrolo[1,2-a]pyrazin-1-one] | < 300 | < 300 | < 300
20 | O=c1[nH]c(-c2ccc(C3CCNCC3)cc2)cn2cccc12 [Compound A75, 3-(4-piperidin-4-yl-phenyl)-2H-pyrrolo[1,2-a]pyrazin-1-one] | < 300 | < 300 | < 300
